This assay concerns the target T1, human S1P1 receptor (Homo sapiens, UniProt P21453).
T1 construct: expressed in transfected cells; membranes used
As to the kind of experiment: GTP γ35S binding assay for S1P1 activity. Type of assay: biochemical. To be noted: for % S1P1 STIMULATION @ 5 μM (%): GTPγ^35S binding, compound at 5 μM; for EC50: membranes of cells stably expressing the S1P1 receptor, test compounds 0.08 to 5,000 nM, read-out: S1P1 GTPγ^35S EC50. As to the method:
Compounds were synthesized and tested for S1P1 activity using the GTP γ^35S binding assay. These compounds may be assessed for their ability to activate or block activation of the human S1P1 receptor in cells stably expressing the S1P1 receptor.
GTP γ^35S binding was measured in the medium containing (mM) HEPES 25, pH 7.4, MgCl2 10, NaCl 100, dithitothreitol 0.5, digitonin 0.003%, 0.2 nM GTP γ^35S, and 5 μg membrane protein in a volume of 150 μl. Test compounds were included in the concentration range from 0.08 to 5,000 nM unless indicated otherwise. Membranes were incubated with 100 μM 5′-adenylylimmidodiphosphate for 30 min, and subsequently with 10 μM GDP for 10 min on ice. Drug solutions and membrane were mixed, and then reactions were initiated by adding GTP γ^35S and continued for 30 min at 25° C. Reaction mixtures were filtered over Whatman GF/B filters under vacuum, and washed three times with 3 mL of ice-cold buffer (HEPES 25, pH7.4, MgCl2 10 and NaCl 100). Filters were dried and mixed with scintillant, and counted for ^35S activity using a β-counter. Agonist-induced GTP γ^35S binding was obtained by subtracting that in the absence of agonist. Binding data were analyzed using a non-linear regression method. In case of antagonist assay, the reaction mixture contained 10 nM S1P in the presence of test antagonist at concentrations ranging from 0.08 to 5000 nM.
A general note: Binding of GTPγS marks nucleotide exchange on a G protein.

A word on the EC50: it is the midpoint of the concentration-response curve.

T1 sequence (P21453 whole entry): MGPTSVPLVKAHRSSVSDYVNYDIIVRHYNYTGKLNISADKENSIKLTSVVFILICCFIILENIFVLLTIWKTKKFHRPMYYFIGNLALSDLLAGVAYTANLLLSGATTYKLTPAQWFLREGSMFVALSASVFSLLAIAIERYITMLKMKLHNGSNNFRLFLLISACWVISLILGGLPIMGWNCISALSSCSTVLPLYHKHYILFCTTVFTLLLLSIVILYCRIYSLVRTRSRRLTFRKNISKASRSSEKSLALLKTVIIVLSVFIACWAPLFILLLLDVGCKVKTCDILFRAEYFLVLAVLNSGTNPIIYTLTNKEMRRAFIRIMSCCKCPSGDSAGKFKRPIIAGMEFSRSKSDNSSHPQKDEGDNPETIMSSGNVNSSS

For the molecule `CC(C)Oc1ccc(-c2nc(-c3ccccc3-c3cccc(OCCCO)c3)no2)cc1C#N` [Compound 1, 5-{3-[3′-(3-Hydroxy-propoxy)-biphenyl-2-yl]-[1,2,4]oxadiazol-5-yl}-2-isopropoxy-benzonitrile], the “% S1P1 STIMULATION @ 5 μM (%)” value worked out at 76% and the EC50 turned out to be 1420 nM.

As to `O=C(O)CNCCCOc1cccc(-c2ccccc2-c2noc(-c3ccc(-c4cccc(F)c4)c(C(F)(F)F)c3)n2)c1` [Compound 2, (3-{2′-[5-(3′-Fluoro-2-trifluoromethyl-biphenyl-4-yl)-[1,2,4]oxadiazol-3-yl]-biphenyl-3-yloxy}-propylamino)acetic acid], the “% S1P1 STIMULATION @ 5 μM (%)” value is on record as 96% and the EC50 turned out to be 552 nM.

With `CC(C)Oc1ccc(-c2nc(-c3ccccc3-c3cccc(OCCCNCC(=O)O)c3)no2)cc1C#N` [Compound 3, (3-{2′-[5-(3-Cyano-4-isopropoxy-phenyl)-[1,2,4]oxadiazol-3-yl]-biphenyl-3-yloxy}-propylamino)-acetic acid], the “% S1P1 STIMULATION @ 5 μM (%)” value stood at 85% and the EC50 worked out at 82 nM.

These data come from patent US8273776B2, “Biphenyl oxadiazole derivatives as sphingosine-1-phosphate receptors modulators” (Allergan, Inc, priority 2010, dated 2012).
